Experiment [1] relates to XL2 cells. The experiment can be described thus: Fluorescence microscopy analysis of the stages of mitosis. Type of experiment: cell-based, Xenopus. Conditions: 50 cells blocked in mitosis. The procedure: The molecules synthesized were tested in vitro on the proteolytic activities described of the proteasome, then in vivo on Xenopus (XL2) cell cultures. Knowledge of the cell cycle of XL2 cells has made it possible to carry out synchronization experiments and also to evaluate the duration of each of the phases of the cycle.
Observation of the nuclear content makes it possible to determine the different stages of the mitosis. The following results were obtained using 50 cells blocked in mitosis. The first 7 inhibitors were studied using fluorescence microscopy.

The target of experiment [2] is purified proteasome (chymotrypsin activity) (Homo sapiens, UniProt P28074). The experiment can be described thus: Inhibition of the chymotrypsin catalytic activity of the purified proteasome. Type of experiment: biochemical. The conditions noted are these: 1 mM compound. The text has this:
In vitro analyses of the inhibitory potentialities of the Hydrazinoazapeptoids synthesized vis-à-vis the enzyme activities of the proteasome.
The inhibitory potentialities of the hydrazinoazapeptoids have been quantified with respect to the chymotrypsin enzyme activities of the purified proteasome. The results are expressed as percentages of activity inhibition.
Measurement of the inhibitory properties of the synthesized compounds on the chymotrypsin catalytic activity of the purified proteasome.

The test system of experiment [3] is cell cycle progression (mitosis). Conditions: lower concentrations only slow down the mitosis; cited from earlier work.
In experiment [4] the test system is XL2 cells. The experiment is described as follows: FACS analysis, % of cells blocked in G2/M in XL2 cell cultures. Type of experiment: cell-based, Xenopus. The procedure:
The molecules synthesized were tested in vitro on the proteolytic activities described of the proteasome, then in vivo on Xenopus (XL2) cell cultures. Knowledge of the cell cycle of XL2 cells has made it possible to carry out synchronization experiments and also to evaluate the duration of each of the phases of the cycle. […]

Square brackets hold non-standard residues; d marks the D form. Peptide text beside a SMILES is read from it. Nle = CCCC[C@H](N)C(=O)O Where only a bound is given, the exact number is not on record here.

As to `CCCC[C@@H](C=O)NC(=O)[C@H](CC(C)C)NC(=O)[C@H](CC(C)C)NC(C)=O` [ALLN, N-acetyl-leucinyl-leucinyl-norleucinal, reference compound] (Ac-Leu-Leu-[Nle]-aldehyde), in experiment [1], the “% Anaphase + Telophase” value was 3%, the “% Metaphase” value amounted to 83% and the “% Prophase” value turned out to be 15%. In addition, in experiment [2], the “% inhibition of chymotrypsin activity of the purified proteasome” value amounted to 91% and at 1000 µM the inhibition was 90%. In addition, the “concentration producing an extended stop in mitosis” value in experiment [3] was more than 50 µg/mL. Moreover, in experiment [4] (100 μM, 7 h), the “% of cells blocked in G2/M” value was 53%. In addition, in experiment [4] (XL2 cell cultures), the “concentration in the medium necessary to obtain a blockage in mitosis” value was 100 µM.
